Data on 25 molecules can be found in US5028733A, “Prostaglandins” (National Research Development Corporation, priority 1980, dated 1991).

What all share (type): cell-based
Assay [1] concerns rabbit aorta. As to the kind of experiment: Rabbit aorta strip, antagonism of contraction by 11,9-(epoxymethano) PGH2 (affinity constant KB). To be noted: for Kb: vs 11,9-(epoxymethano) PGH2, 37° C, compound added 30 min before, Gaddum-Schild, read-out: Affinity Constants, Rabbit Aorta (KB) (converted). How it is done: Spiral strips of thoracic aorta are suspended in Kreb's-Henseleit solution and aerated with 95% O2 /5% CO2 at 37° C. Tension changes are recorded with a Glass FTO3 force transducer. Initially, cumulative dose response curves to 11,9-(epoxymethano) PGH2 (2×10^-9, 1×10^-8, 5×10^-8 and 2.5×10^-7 M) are obtained. In a second experiment the individual compounds are added 30 minutes previous to the addition of the series of agonist doses. In the case of each compound, the affinity constant, KB, for the compound is calculated according to the Gaddum - Schild Equation (based on Law of Mass Action).
(§1) [B]=molar concentration of compound

The target in another assay is T1, human platelets (Homo sapiens, UniProt P21731).
T1 construct: Platelet-rich plasma is obtained from fresh, citrated human blood; endogenous in cells; host or cells: human platelets in platelet-rich plasma
T1 sequence (P21731 1-343): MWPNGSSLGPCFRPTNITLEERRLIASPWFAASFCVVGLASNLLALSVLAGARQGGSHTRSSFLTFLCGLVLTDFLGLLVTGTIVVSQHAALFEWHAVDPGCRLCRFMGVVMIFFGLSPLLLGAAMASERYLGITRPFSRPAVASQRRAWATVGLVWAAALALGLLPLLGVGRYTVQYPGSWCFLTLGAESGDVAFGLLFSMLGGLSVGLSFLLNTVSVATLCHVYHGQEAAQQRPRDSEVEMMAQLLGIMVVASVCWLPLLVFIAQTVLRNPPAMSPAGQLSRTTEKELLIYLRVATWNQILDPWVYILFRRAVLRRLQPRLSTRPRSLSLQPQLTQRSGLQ
As to the kind of experiment: Human platelet system, antagonism of aggregation by 11,9-(epoxymethano) PGH2 (affinity constant KB). The following applies: for Kb: vs 11,9-(epoxymethano) PGH2, compound added 5 min before, Gaddum-Schild, read-out: Affinity Constants, Human Platelets (KB) (converted). How it is done: Platelet-rich plasma is obtained from fresh, citrated human blood. Addition of the 11,9-(epoxymethano) PGH2 (1×10^-7 to 5×10^-7 M) causes immediate aggregation recorded as an increase in light transmission (600 nm). In a second experiment the individual compounds are added five minutes previous to the addition of the PGH2 analogue. The dose of the PGH2 analogue added is then increased to a level which gives a similar response to that obtained in the absence of antagonist. The affinity constant, KB, for the compound is calculated according to the Gaddum - Schild Equation (based on Law of Mass Action).
as §1

Assay [2] concerns rabbit aorta. As to the kind of experiment: Block of the contractile action of noradrenaline in the rabbit aorta strip test. The following applies: in words.
A further assay concerns platelet. Nature of the assay: Block of the aggregatory action of arachidonic acid on platelets. To be noted: in words.

A word on the Kb: it is the affinity of an antagonist, worked out from how it opposes an agonist. Turning to `COc1cccc(NC(=S)NN=C(C)[C@H]2[C@@H]3CC[C@@H](C3)[C@@H]2C/C=C\CCCC(=O)O)c1` (relative stereo), the Kb in the assay with rabbit aorta [1] was 95.2 nM; at human platelets, 118 nM.

Turning to `COc1ccc(NC(=O)NN=C(C)[C@H]2C3CCC(CC3)[C@@H]2C/C=C\CCCC(=O)O)cc1` (relative stereo), the antagonist dissociation constant (Kb) in the assay with rabbit aorta [1] and at human platelets was 55.6 nM in each case. For `CC1(C)[C@H]2C[C@H](C=NNC(=S)Nc3ccccc3)[C@@H](C/C=C\CCCC(=O)O)[C@@H]1C2`, the results for the antagonist dissociation constant (Kb) in the assay on rabbit aorta [1] and on human platelets were 1670 nM and 2860 nM, respectively.

Consider `CC(=NNC(=S)Nc1cccc(C(F)(F)F)c1)[C@H]1[C@@H]2CC[C@@H](C2)[C@@H]1C/C=C\CCCC(=O)O` (relative stereo), for which the Kb in the assay on rabbit aorta [1] is 118 nM; on human platelets, 189 nM.

For `CC(=NNC(=S)Nc1ccccc1)[C@H]1[C@@H]2CC[C@@H](C2)[C@@H]1C/C=C\CCCC(=O)O` (relative stereo) [drawing 42], the figures for the Kb in the assay on rabbit aorta [1] and on human platelets were 90.9 nM and 50 nM, respectively. Take `Cn1c(=NN=C[C@H]2[C@@H]3CC[C@@H](C3)[C@@H]2C/C=C\CCCC(=O)O)sc2ccccc21` (relative stereo): the Kb in the assay on rabbit aorta [1] was 1520 nM; on human platelets it was 3450 nM.

In the case of `CC(=NNC(=O)Nc1ccccc1)[C@H]1C[C@H]2C[C@@H]([C@@H]1C/C=C\CCCC(=O)O)C2(C)C`, the Kb was 357 nM in the assay with rabbit aorta [1] and 909 nM on human platelets. In the case of `O=C(O)CCCC=CCC1C(O)CCC1C=NOCc1ccc(F)cc1` (centres unmarked), in the assay with rabbit aorta [1], the antagonist dissociation constant (Kb) was 2500 nM. Take `CC1(C)[C@H]2C[C@H](C/C=C\CCCC(=O)O)C(C=NNC(=O)Nc3ccccc3)[C@@H]1C2` (single isomer, unassigned): the Kb in the assay with rabbit aorta [1] is 333 nM; on human platelets it was 2000 nM. The corresponding values for `Cc1ccc(S(=O)(=O)NN=C[C@H]2[C@@H]3CC[C@@H](C3)[C@@H]2C/C=C\CCCC(=O)O)cc1` (relative stereo) are 345 nM and 667 nM.

Turning to `COc1ccc(NC(=S)NN=C(C)[C@H]2[C@@H]3CC[C@@H](C3)[C@@H]2C/C=C\CCCC(=O)O)cc1` (relative stereo), the Kb is 213 nM with rabbit aorta [1] and 102 nM at human platelets. `O=C(O)CCC/C=C\C[C@H]1[C@H]2CC[C@H](C2)[C@@H]1C=NNC(=S)NCc1ccccc1` (relative stereo) [Example 1, 5-endo-(6'-Carboxyhex-2'Z-enyl)-6-exo-[N-(benzylthiocarbamoyl)-hydrazonomethyl]-bicyclo [2,2,1] heptane]: the “antagonist in the rabbit aorta strip test” value in the assay on rabbit aorta [1] (in words) is listed as “pure antagonists in the rabbit aorta strip test”. Moreover, the “contractile action of noradrenaline (α-adrenoceptors)” value in the assay on rabbit aorta [2] is “do not block the contractile action of noradrenaline”. Also, the “aggregatory action of arachidonic acid” value in the assay with platelet is listed as “block the aggregatory action of arachidonic acid”. Besides, the “antagonist in the platelet test” value on human platelets (in words) is recorded as “antagonists in the platelet test”.

Turning to `O=C(O)CCC/C=C\C[C@H]1[C@H]2CC[C@H](C2)[C@@H]1C=NOCCOC(c1ccccc1)c1ccccc1` (relative stereo), the Kb in the assay with rabbit aorta [1] is 10000 nM; at human platelets it was 4350 nM.

For `CC(=NNC(=S)Nc1cccnc1)[C@H]1C2CCC(CC2)[C@@H]1C/C=C\CCCC(=O)O` (relative stereo), the Kb with rabbit aorta [1] was 256 nM; on human platelets, 667 nM.

Turning to `O=C(O)CCC/C=C\C[C@H]1[C@H]2CC[C@H](C2)[C@@H]1C=NNC(=O)CN(Cc1ccccc1)Cc1ccccc1` (relative stereo), the Kb with rabbit aorta [1] was 833 nM. Turning to `CCC(=NNC(=S)Nc1ccccc1)[C@H]1[C@@H]2CC[C@@H](C2)[C@@H]1C/C=C\CCCC(=O)O` (relative stereo) [Example 3, 5-endo-(6'-Carboxyhex-2'Z-enyl)-6-exo-{1'-[N-(phenylthiocarbamoyl)-hydrazono]-propyl}-bicyclo [2,2,1] heptane], the antagonist dissociation constant (Kb) at human platelets is 256 nM.

As for `O=C(O)CCC/C=C\C[C@H]1C2CCC(CC2)[C@@H]1C=NNC(=O)Nc1ccccc1` (relative stereo), the antagonist dissociation constant (Kb) in the assay on rabbit aorta [1] is 833 nM.

Consider `CC(=NNC(=S)Nc1cccc(F)c1)[C@H]1[C@@H]2CC[C@@H](C2)[C@@H]1C/C=C\CCCC(=O)O` (relative stereo), for which the antagonist equilibrium constant (Kb) is 70.4 nM with rabbit aorta [1] and 45.5 nM at human platelets. Consider `O=C(O)CCC/C=C\C[C@H]1[C@H]2CC[C@H](C2)[C@@H]1C=NN=C(c1ccccc1)c1ccccc1` (relative stereo), for which the antagonist dissociation constant (Kb) with rabbit aorta [1] is 667 nM.

Regarding `O=C(O)CCC/C=C\C[C@@H]1CC=CC[C@H]1C=NNC(=S)Nc1ccccc1` (relative stereo), the antagonist equilibrium constant (Kb) was 1100 nM in the assay on rabbit aorta [1] and 500 nM on human platelets. In the case of `O=C(O)CCC/C=C\C[C@H]1[C@H]2CC[C@H](C2)[C@@H]1C=NNC(=S)NCc1ccccc1` (relative stereo) [drawing 41], the Kb in the assay on rabbit aorta [1] is 526 nM; at human platelets, 1280 nM. With `O=C(O)CCC/C=C\C[C@@H]1CC=CC[C@H]1C=NOCc1ccc(F)cc1` (relative stereo), the Kb was 385 nM with rabbit aorta [1] and 8330 nM on human platelets. Turning to `O=C(O)CCC/C=C\C[C@H]1[C@H]2CC[C@H](C2)[C@@H]1C=NNC(=S)Nc1ccccc1` (relative stereo), the antagonist dissociation constant (Kb) with rabbit aorta [1] was 526 nM; on human platelets, 263 nM.

For the molecule `O=C(O)CCC/C=C\C[C@H]1[C@H]2CC[C@H](C2)[C@@H]1C=NNc1nc2ccccc2o1` (relative stereo), the Kb was 500 nM with rabbit aorta [1] and 5560 nM on human platelets. Regarding `CC(=NNC(=S)Nc1ccccc1)[C@H]1C2CCC(CC2)[C@@H]1C/C=C\CCCC(=O)O` (relative stereo), the antagonist equilibrium constant (Kb) was 83.3 nM with rabbit aorta [1] and 47.6 nM on human platelets.
